US20050244481A1, “Personal care products and methods for inhibiting the adherence of flora to skin” (Kimberly-Clark Worldwide, Inc., priority 2004, published 2005)

What was measured:
Assay type in all cases: cell-based
[1] = system: Pseudomonas aeruginosa (ATCC # 27853); assay: Inhibition of P. aeruginosa attachment to VITRO-SKIN synthetic skin substrate (Example 1, AlamarBlue); settings: 3 h, RFU at 120 min, n = 5
Protocol: Two days prior to the test a bacterial culture was started by inoculating 10 ml Luria-Bertani (LB) (Sigma-Aldrich, St. Louis, Mo.) with one frozen bead of Pseudomonas aeruginosa (ATCC # 27853), and incubating the culture overnight at 37° C. with agitation at 125 rpm.
One day prior to the test a 100 ml LB culture was inoculated with 100 μl of the overnight culture and grown overnight at 37° C. with agitation at 125 rpm. VITRO-SKIN® synthetic skin substrate (N19, IMS, Milford, Conn.) was cut with a #2 size boring tool and placed into the wells of a 96 well tissue culture plate (Costar #3596, Corning Inc., Corning, NY). The plates were kept in a humidity chamber overnight until use to prevent dehydration of the tissues.
(§1) The day of the test, the optical density at 650 nm (OD) of the overnight culture was measured using a Spectramax spectrophotometer (Molecular Devices, Sunnyvale, Calif.). The culture was centrifuged at 4,500×g for 10 minutes at 4° C. (J-251 centrifuge, Beckman, Fullerton, Calif.) to pellet the bacteria. The bacteria were resuspended in phosphate buffered saline (PBS) to give a concentration of 2×10^10 cells/ml (1 OD equals 1×10^9 cells/ml).
A 20% (w/v) solution of each inulin source (Chicory root, Dahlia tuber from Sigma-Aldrich, St. Louis, Mo.) was prepared by mixing 0.3 g inulin with PBS (Invitrogen, Carlsbad, Calif.) to a final volume of 1.5 ml. Tween 20 (Sigma-Aldrich, St. Louis, Mo.) was included as a positive control, and a 4% (v/v) stock was prepared by mixing 40 μl of Tween 20 to 960 μl PBS. The Tween 20 stock was diluted to prepare a 2% (v/v) solution of Tween 20 by mixing 800 μl of the 4% solution and 800 μl of PBS. A two fold dilution series was prepared for each inulin source as follows: • 10%: 800 μl of the 20% solution plus 800 μl of PBS • 5%: 800 μl of the 10% solution plus 800 μl of PBS • 2.5%: 800 μl of the 5% solution plus 800 μl of PBS • 1.25% 800 μl of the 2.5% solution plus 800 μl of PBS.
All tests were run five times (n=5).
For the applied dose, 50 μl of each inulin dilution, Tween 20 alone, or PBS alone was added to the VITRO-SKIN® discs followed immediately by 50 μl of either the bacteria cells or PBS. Samples containing 50 μl inulin dilutions and 50 μl PBS served as a background controls for the inulin samples. Samples containing 50 μl Tween 20 and 50 μl PBS served as background controls for the Tween 20 samples. Background controls for the PBS were 100 μl PBS. The plates were gently shaken at room temperature for three hours. The tissues were washed three times with 250 μl of PBS, and transferred to an opaque white 96 well plate (Costar # 3922). 200 μl of AlamarBlue™ (Trek Diagnostic Systems, Cleveland, Ohio) in LB (20 μl AlamarBlue™+180 μl LB per well) was added to each well. AlamarBlue™ conversion was monitored every 15 minutes in a microfluorometer (Fluoroskan Ascent, Thermo-Labsystems, Beverly, Mass.) for 120 minutes with an excitation of 544 nm and emission of 590 nm. In between readings the plates were covered and incubated at 37° C.
(§2) Results are expressed as percent bacteria adhered to the tissue relative to the PBS control. The percentage is based on the number of cells that adhered to the skin in the inulin-containing (or Tween 20-containing control) samples as compared to the number of cells that adhered to the skin in the PBS control (i.e. PBS plus bacteria cells), as determined by the AlamarBlue® levels (relative fluorescence units (RFU)) at 120 minutes. The percent adherence was calculated by the formula: (RFU of the sample−RFU of appropriate background control)/(average of the RFU of the PBS treatment−average RFU of PBS background control)*100.
The results for the five wells for each dilution step were averaged, and the percent attached as compared to the PBS control treatment was calculated.

Pseudomonas aeruginosa [2] = assay: Inhibition of P. aeruginosa attachment to porcine skin (Example 2, AlamarBlue); settings: for % Attached as Compared to PBS Treatment: 3 h, RFU at 60 min, n = 3
Protocol: (§3) Two days prior to the test a bacterial culture was started by inoculating 10 ml of Luria-Bertani (LB) medium with one frozen bead containing Pseudomonas aeruginosa (Dr. G. O'Toole, Dept. Microbiol. Dartmouth Medical School, Hanover, N.H.), and incubating the culture overnight at 37° C. with agitation at 125 rpm.
(§4) One day prior to the test a 100 ml LB culture was inoculated with 100 μl of the overnight culture and grown overnight at 37° C. with agitation at 125 rpm.
as §1, with “test” for “test,”, “density” for “density at 650 nm”, “measured at 650 nm” for “measured”, “C.” for “C. (J-251 centrifuge, Beckman, Fullerton, Calif.)”, “cells/ml). […]” for “cells/ml).”
(§5) The tissues were treated with 50 μl of inulin, Tween 20 alone, or PBS alone followed immediately by 50 μl of either the bacteria cells or PBS. […] AlamarBlue™ conversion was monitored kinetically in a microfluorometer (Fluoroskan Ascent, Thermo-Labsystems, Beverly, Mass.) for 60 minutes at 37° C., with an excitation of 544 nm and emission of 590 nm.
as §2, with “(RFU)” for “(relative fluorescence units (RFU))”, “60” for “120”
(§6) The results for the three wells comprising each dilution were averaged, and the percent attached as compared to the PBS control treatment was calculated.

Pseudomonas aeruginosa [3] = assay: Inhibition of P. aeruginosa attachment to VITRO-SKIN synthetic skin substrate (Example 2, AlamarBlue); settings: for % Attached as Compared to PBS Treatment: 3 h, RFU at 60 min, n = 3
Protocol: as §3, §4
as §1, with “test” for “test,”, “density” for “density at 650 nm”, “measured at 650 nm” for “measured”, “C.” for “C. (J-251 centrifuge, Beckman, Fullerton, Calif.)”, “cells/ml). […]” for “cells/ml).”
as §5
as §2, with “(RFU)” for “(relative fluorescence units (RFU))”, “60” for “120”
as §6

Pseudomonas aeruginosa [4] = assay: Inhibition of P. aeruginosa attachment to EpiDerm skin culture (Example 3); settings: for % Attached as Compared to PBS Treatment: 37° C., 3 h, n = 2
Protocol: The EpiDerm™ (MatTek, Ashland, Mass.) experiment was performed as outlined by the protocol supplied by the manufacturer for the EPI-200 EpiDerm™.
Two days prior to the test bacterial culture was started by inoculating 10 ml of Luria-Bertani broth (LB) with one to two well isolated colonies of Pseudomonas aeruginosa (Dr. G. O'Toole, Dept. Microbiol. Dartmouth Medical School, Hanover, N.H.) and incubating the culture overnight at 37° C. with agitation at 125 rpm.
One day prior to the test a 50 ml LB culture was inoculated with 50 μl of the overnight culture and grown overnight at 37° C. with agitation at 125 rpm. The optical density (at 650 nm) of the overnight culture was measured using a Spectramax spectrophotometer (molecular Devices, Sunnyvale, Calif.). The culture was centrifuged at 4,500×g for 10 minutes at 4° C. to pellet the bacteria. The bacteria were resuspended in phosphate buffered saline (PBS) to give a concentration of 2×10^10 cells/ml (1 OD equals 1×10^9 cells/ml).
A 20% (w/v) stock of inulin (Jerusalem Artichoke, Sigma Chemical St Louis Mo.) was prepared by mixing 0.20 g of inulin with a sufficient amount of PBS to yield a final volume of 1 ml. […]
For the applied dose, 50 μl of 20% inulin in PBS, 4% Tween 20 alone, or PBS alone was applied to the EpiDerm™ tissue followed immediately by 50 μl of either the bacteria cells or PBS. […] After three hours, the tissue was analyzed for the number of adhered bacteria.
To measure adherence of P. aeruginosa to the EPIDERM™ tissue, the liquid remaining on the tissue was first transferred to a fresh microcentrifuge tube. […] Fluorescence was monitored in a microfluorometer at an excitation of 485 nm and an emission of 510 nm.
Results are expressed as percent bacteria adhered to the tissue relative to the PBS control. […] The percent adherence was calculated by the formula: (RFU in bound fraction of the inulin or Tween 20 sample−average background RFU)/(average of the RFU in the bound fraction of the cells alone treatment−average background RFU)*100. […]

## Tween 20 [reference compound]
[1]; treatment concentration 2%
  % Attached as Compared to PBS Treatment: 50%
Pseudomonas aeruginosa [2]; treatment concentration 2%
  % Attached as Compared to PBS Treatment: 70%
Pseudomonas aeruginosa [3]; treatment concentration 2%
  % Attached as Compared to PBS Treatment: 10%
Pseudomonas aeruginosa [4]; treatment concentration 2%
  % Attached as Compared to PBS Treatment: 73%

## inulin [Chicory root]
[1]; treatment concentration 1.25%
  % Attached as Compared to PBS Treatment: 92%
[1]; treatment concentration 2.5%
  % Attached as Compared to PBS Treatment: 60%
[1]; treatment concentration 5%
  % Attached as Compared to PBS Treatment: 45%
[1]; treatment concentration 10%
  % Attached as Compared to PBS Treatment: 17%

## inulin [Dahlia tuber]
[1]; treatment concentration 1.25%
  % Attached as Compared to PBS Treatment: 86%
[1]; treatment concentration 2.5%
  % Attached as Compared to PBS Treatment: 59%
[1]; treatment concentration 5%
  % Attached as Compared to PBS Treatment: 48%
[1]; treatment concentration 10%
  % Attached as Compared to PBS Treatment: 29%

## inulin [Jerusalem Artichoke]
Pseudomonas aeruginosa [2]
  effect on attachment of P. aeruginosa to porcine skin (in words): also occurred on porcine skin
Pseudomonas aeruginosa [2]; treatment concentration 10%
  % Attached as Compared to PBS Treatment: 25%
Pseudomonas aeruginosa [3]
  effect on attachment of P. aeruginosa to VITRO-SKIN substrate (in words): inhibited attachment
Pseudomonas aeruginosa [3]; treatment concentration 10%
  % Attached as Compared to PBS Treatment: 53%
Pseudomonas aeruginosa [4]
  effect on attachment of P. aeruginosa to EpiDerm (in words): inhibited attachment
Pseudomonas aeruginosa [4]; treatment concentration 10%
  % Attached as Compared to PBS Treatment: 57%
